Test results published in ChEMBL document CHEMBL5120747, “Mononucleoside phosphorodithiolates as mononucleotide prodrugs” (Eur J Med Chem, 2022).

What was measured:
[1] = Prodrug conversion in human CEM-SS cell extract assessed as parent ddA formation at 0.00005 M measured at 50 to 150 hrs by HPLC analysis; type: ADME, cell-based; settings: 50 µM, time 50-150 hrs
[2] = system: Human immunodeficiency virus 1; experiment: Anti-HIV activity against HIV-1 infected in human MT4 cells assessed as inhibition of viral replication; type: functional, organism-based; settings: Human immunodeficiency virus 1, MT4
[3] = system: Human immunodeficiency virus 1; experiment: Anti-HIV activity against HIV-1 infected in human PBMC assessed as inhibition of viral replication; type: functional, organism-based; settings: Human immunodeficiency virus 1, PBMC
[4] = Cytotoxicity against human MDM assessed as reduction in cell viability; type: toxicity, cell-based
[5] = system: Human immunodeficiency virus 1; experiment: Anti-HIV activity against HIV-1 infected in human MDM assessed as inhibition of viral replication; type: functional, organism-based
CEM-SS = experiment: Cytotoxicity against human CEM-SS cells assessed as reduction in cell viability; type: functional
[6] = Cytotoxicity against human PBMC assessed as reduction in cell viability; type: toxicity, cell-based
[7] = Cytotoxicity against human MT4 cells assessed as reduction in cell viability; type: toxicity, cell-based
[8] = system: Human immunodeficiency virus 1; experiment: Anti-HIV activity against HIV-1 infected in human CEM-SS cells assessed as inhibition of viral replication; type: functional, organism-based; settings: Human immunodeficiency virus 1, CEM-SS
CEM-TK(-) = experiment: Cytotoxicity against human CEM-TK(-) cells assessed as reduction in cell viability; type: functional
[9] = system: Human immunodeficiency virus 1; experiment: Anti-HIV activity against HIV-1 infected in human CEM-TK(-) cells assessed as inhibition of viral replication; type: functional, organism-based; settings: Human immunodeficiency virus 1, CEM-TK(-)
[10] = Prodrug conversion in human CEM-SS cell extract assessed as ddAMP formation at 0.00005 M measured at 100 to 500 mins by HPLC analysis; type: ADME, cell-based; settings: 50 µM, time 100-500 min
[11] = Stability of compound in RPMI 1640 culture medium at pH 7.45 by HPLC analysis; type: physicochemical; settings: buffer
[12] = Stability of compound in phosphate buffer at pH 7.4 by HPLC analysis; type: physicochemical
[13] = Stability of compound in human CEM-SS cell extract at pH 7.45 assessed as compound half life by HPLC analysis; type: ADME, cell-based
[14] = Stability of compound in inactivated fetal calf serum with RPMI 1640 culture medium assessed as compound half life by HPLC analysis; type: ADME, cell-free, Bos taurus; settings: cattle
[15] = Stability of compound in phosphate buffer at pH 7.4 assessed as compound half life by HPLC analysis; type: physicochemical
[16] = Stability of compound in RPMI 1640 culture medium at pH 7.45 assessed as compound half life by HPLC analysis; type: physicochemical
[17] = Prodrug conversion in human CEM-SS cell extract assessed as O-((2S,5R)-5-(6-amino-9H-purin-9-yl)tetrahydrofuran-2-yl)methyl S-2-(pivaloylthio)ethyl phos-phorothioate sodium salt metabolite formation at 0.00005 M measured at 5 to 15 hrs by HPLC analysis; type: ADME, cell-based; settings: 50 µM, time 5-15 hrs
[18] = Prodrug conversion in human CEM-SS cell extract assessed as metabolite X formation at 0.00005 M measured at 100 to 500 mins by HPLC analysis; type: ADME, cell-based; settings: 50 µM, time 100-500 min
[19] = Prodrug conversion in human CEM-SS cell extract assessed as S-(O-pivaloyl-2-oxyethyl)O-2',3'-dideoxyadenosin-5'-yl phos-phorothiolate diester sodium salt metabolite formation at 0.00005 M measured at 5 to 15 hrs by HPLC analysis; type: ADME, cell-based; settings: 50 µM, time 5-15 hrs
[20] = Prodrug conversion in inactivated fetal calf serum with RPMI 1640 culture medium assessed as S-(O-pivaloyl-2-oxyethyl)O-2',3'-dideoxyadenosin-5'-yl phos-phorothiolate diester sodium salt metabolite formation at 0.00005 M measured at 50 to 150 hrs by HPLC analysis; type: ADME, cell-free, Bos taurus; settings: cattle, 50 µM, time 50-150 hrs

EC50 [2] [nM] | EC50 [8] [nM] | EC50 [9] [nM] | Compound | CC50 (CEM-SS) [nM] | CC50 [7] [nM] | CC50 (CEM-TK(-)) [nM] | other results
7800 | 490 |  | Nc1ncnc2c1ncn2[C@H]1CC[C@@H](CO)O1 | > 100000 | > 100000 |  | EC50 [3]: 240 nM; CC50 [4]: 100000 nM; EC50 [5]: 120 nM; CC50 [6]: > 100000 nM
2500 | 220 | 50 | Cc1cn([C@H]2CC[C@@H](COP(=O)(OCCSC(=O)C(C)(C)C)OCCSC(=O)C(C)(C)C)O2)c(=O)[nH]c1=O | > 10000 | > 10000 | > 10000 | 

Further lines, the compound ahead of its results:

Compound | EC50 [2] [nM] | EC50 [8] [nM] | EC50 [9] [nM] | CC50 (CEM-SS) [nM] | CC50 [7] [nM] | CC50 (CEM-TK(-)) [nM] | other results
Nc1ncnc2c1ncn2[C@H]1CC[C@@H](COP(=O)(O)O)O1 |  |  |  |  |  |  | Drug metabolism [1]: Metabolite_Detected
Cc1cn([C@H]2CC[C@@H](CO)O2)c(=O)[nH]c1=O | 16000 | 700 | > 100000 | > 100000 | > 100000 | > 100000 | 
Cc1cn([C@H]2C=C[C@@H](COP(=O)(SCCOC(=O)C(C)(C)C)SCCOC(=O)C(C)(C)C)O2)c(=O)[nH]c1=O | 99 | 27 | 5 | > 10000 | > 10000 | 8000 | 
Cc1cn([C@H]2CC[C@@H](COP(=O)(SCCOC(=O)C(C)(C)C)SCCOC(=O)C(C)(C)C)O2)c(=O)[nH]c1=O | 900 | 80 | 50 | > 10000 | > 10000 | > 10000 | 
CC(C)(C)C(=O)OCCSP(=O)([O-])OC[C@@H]1CC[C@H](n2cnc3c(N)ncnc32)O1.[Na+] |  |  |  |  |  |  | Drug metabolism [10]: Metabolite_Detected; Stability [11]: Stable; Stability [12]: Stable
CC(C)(C)C(=O)SCCOP(=O)(OCCSC(=O)C(C)(C)C)OC[C@@H]1C=C[C@H](n2cnc3c(N)ncnc32)O1 | 320 | 18 |  | 5900 | 9000 |  | half-life [13]: 1 h; EC50 [3]: 47 nM; half-life [14]: 166 h; half-life [15]: 432 h; CC50 [4]: 3600 nM; EC50 [5]: 0.16 nM; half-life [16]: 302 h; Drug metabolism [17]: Metabolite_Detected; CC50 [6]: 1700 nM
CC(C)(C)C(=O)SCCOP(=O)([O-])OC[C@@H]1CC[C@H](n2cnc3c(N)ncnc32)O1.[Na+] |  |  |  |  |  |  | Drug metabolism [10]: Metabolite_Detected; Stability [11]: Stable; Stability [12]: Stable; Drug metabolism [18]: Metabolite_Detected
Cc1cn([C@H]2C=C[C@@H](COP(=O)(OCCSC(=O)C(C)(C)C)OCCSC(=O)C(C)(C)C)O2)c(=O)[nH]c1=O | 260 | 30 | 21 | > 10000 | > 10000 | 4600 | 
CC(C)(C)C(=O)OCCSP(=O)(OC[C@@H]1CC[C@H](n2cnc3c(N)ncnc32)O1)SCCOC(=O)C(C)(C)C | 270 | 25 |  | > 10000 | > 1000 |  | half-life [13]: 5.3 h; EC50 [3]: 20 nM; half-life [14]: 38.4 h; half-life [15]: 69.6 h; Drug metabolism [19]: Metabolite_Detected; CC50 [4]: 8600 nM; EC50 [5]: 0.23 nM; half-life [16]: 52.8 h; Drug metabolism [20]: Metabolite_Detected; CC50 [6]: > 10000 nM
Cc1cn([C@H]2C=C[C@@H](CO)O2)c(=O)[nH]c1=O [STAVUDINE] | 280 | 59 | > 10000 | > 100000 | > 100000 | > 100000 | 
